Our source for the IC50 values is patent publication US11780821B2, “Inhibitors of fibroblast activation protein” (Praxis Biotech LLC, priority 2017, dated 2023).

pIC50: −log10 of the molar value. Read-outs that look alike come from different tables or passages of the source.

Format in all cases: biochemical
In assay [1] the target is T1, recombinant human PREP (rhPREP) (Homo sapiens, UniProt P48147).
T1 sequence (P48147 1-710): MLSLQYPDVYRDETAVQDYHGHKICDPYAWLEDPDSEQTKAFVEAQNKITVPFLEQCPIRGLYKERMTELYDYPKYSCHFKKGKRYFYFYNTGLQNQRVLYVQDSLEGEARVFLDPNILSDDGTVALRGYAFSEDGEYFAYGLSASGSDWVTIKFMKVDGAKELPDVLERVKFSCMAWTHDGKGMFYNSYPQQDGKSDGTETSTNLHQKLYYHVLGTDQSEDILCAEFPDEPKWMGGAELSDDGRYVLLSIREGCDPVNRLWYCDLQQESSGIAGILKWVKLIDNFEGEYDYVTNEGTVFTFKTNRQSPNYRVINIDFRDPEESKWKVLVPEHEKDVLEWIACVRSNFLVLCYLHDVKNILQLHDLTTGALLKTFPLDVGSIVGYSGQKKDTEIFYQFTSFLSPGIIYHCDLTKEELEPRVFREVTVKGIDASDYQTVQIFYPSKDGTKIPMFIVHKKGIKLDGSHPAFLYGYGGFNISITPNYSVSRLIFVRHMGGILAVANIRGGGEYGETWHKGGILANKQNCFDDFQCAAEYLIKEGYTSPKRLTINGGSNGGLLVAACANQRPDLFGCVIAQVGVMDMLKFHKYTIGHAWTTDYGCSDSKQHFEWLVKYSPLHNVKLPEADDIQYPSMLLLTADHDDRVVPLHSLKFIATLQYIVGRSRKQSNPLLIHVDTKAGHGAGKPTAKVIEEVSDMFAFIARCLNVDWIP
Nature of the assay: PREP enzymatic activity assay. Particulars: Z-Gly-Pro-AMC substrate. Here is the method:
7-Amino-4-Methylcoumarin (AMC) release was detected by measuring fluorescence at Ex/Em 380/460 nm using a Multifunction Microplate Reader (Synergy 4, Biotek). All measurements were carried out in triplicate.

The next assay concerns the target T2, mouse plasma FAPα (Mus musculus, UniProt P97321).
T2 construct: from tissue; host or cells: mouse plasma (C57BL/6, EDTA)
T2 sequence (P97321 24-761 limits assumed): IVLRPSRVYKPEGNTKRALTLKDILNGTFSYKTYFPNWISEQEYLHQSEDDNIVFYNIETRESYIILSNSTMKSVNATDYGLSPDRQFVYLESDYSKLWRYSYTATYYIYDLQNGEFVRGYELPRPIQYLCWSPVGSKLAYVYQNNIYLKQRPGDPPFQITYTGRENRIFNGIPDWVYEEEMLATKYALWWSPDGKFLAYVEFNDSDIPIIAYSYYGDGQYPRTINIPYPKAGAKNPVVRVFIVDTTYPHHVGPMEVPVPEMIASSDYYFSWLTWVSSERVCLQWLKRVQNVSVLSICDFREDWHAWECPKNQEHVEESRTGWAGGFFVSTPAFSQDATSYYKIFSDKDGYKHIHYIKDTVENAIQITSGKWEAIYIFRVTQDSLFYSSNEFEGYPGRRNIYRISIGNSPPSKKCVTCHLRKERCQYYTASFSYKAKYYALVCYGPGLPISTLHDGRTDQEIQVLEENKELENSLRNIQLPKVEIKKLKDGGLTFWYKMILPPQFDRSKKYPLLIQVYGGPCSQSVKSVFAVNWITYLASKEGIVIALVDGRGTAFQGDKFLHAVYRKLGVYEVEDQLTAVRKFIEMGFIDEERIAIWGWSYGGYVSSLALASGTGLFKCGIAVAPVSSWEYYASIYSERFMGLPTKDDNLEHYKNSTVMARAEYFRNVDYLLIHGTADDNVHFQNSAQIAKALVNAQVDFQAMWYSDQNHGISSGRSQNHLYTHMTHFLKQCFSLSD
Nature of the assay: FAPα enzymatic activity in mouse plasma. To be noted: C57BL/6 mouse plasma. Here is the method: The blood sample was immediately centrifuged at approximately 9000 g at 4° C. for 5 minutes. Plasma was separated and stored at −80° C. in aliquots of 300 μL. […] The assay was performed for 1 hour at 37° C. protected from light. 7-Amino-4-Methylcoumarin (AMC) release was detected measuring fluorescence at an excitation wavelength of 380 nm and an emission wavelength of 460 nm using a Multifunction Microplate Reader (Synergy 4, Biotek). All measurements were carried out at least as a single point.

Assay [2] concerns the target T3, circulating FAPα from human plasma (Homo sapiens, UniProt Q12884).
T3 construct: from tissue; host or cells: human plasma (EDTA-K2)
T3 sequence (Q12884 24-760 limits assumed): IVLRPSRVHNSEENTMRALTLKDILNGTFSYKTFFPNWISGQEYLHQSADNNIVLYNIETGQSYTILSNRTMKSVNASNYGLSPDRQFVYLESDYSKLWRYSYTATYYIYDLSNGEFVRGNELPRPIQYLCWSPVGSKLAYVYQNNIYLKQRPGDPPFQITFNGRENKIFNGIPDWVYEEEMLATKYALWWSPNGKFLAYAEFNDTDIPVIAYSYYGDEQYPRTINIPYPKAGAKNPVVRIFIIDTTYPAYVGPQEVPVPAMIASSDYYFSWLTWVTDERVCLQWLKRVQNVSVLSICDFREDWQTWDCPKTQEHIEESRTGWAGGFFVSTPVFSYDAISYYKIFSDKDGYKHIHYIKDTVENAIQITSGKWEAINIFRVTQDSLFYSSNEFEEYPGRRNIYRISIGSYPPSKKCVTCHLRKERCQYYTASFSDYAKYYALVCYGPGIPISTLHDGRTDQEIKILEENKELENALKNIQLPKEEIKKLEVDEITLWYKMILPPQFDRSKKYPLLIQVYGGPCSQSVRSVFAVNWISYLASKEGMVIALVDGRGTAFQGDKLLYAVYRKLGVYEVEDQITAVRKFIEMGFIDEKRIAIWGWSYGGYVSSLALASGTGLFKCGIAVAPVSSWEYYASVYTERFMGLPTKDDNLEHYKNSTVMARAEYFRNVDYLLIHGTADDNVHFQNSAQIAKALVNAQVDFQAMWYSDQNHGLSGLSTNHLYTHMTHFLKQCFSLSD
Nature of the assay: Ex vivo inhibition of circulating FAPα activity from human plasma. Here is the method:
Human blood was obtained from healthy young volunteers. Blood samples were collected in tubes coated with EDTA-K2 by venipuncture method, mixed gently, then kept on ice and centrifuged at 2,500×g for 15 minutes at 4° C. After plasma separation, samples were stored at −80° C. in aliquots of 300 μL. […] Exemplary compounds were allowed to interact with the enzyme for 15 minutes at 37° C. After pre-incubation, 50 μl of 200 μM PRXS-AMC substrate were added to the all mixtures. All reactions were carried out for 1 h at 37° C. protected from light. AMC release was detected measuring fluorescence at an excitation/emission wavelength of 380/460 nm using a Multifunction Microplate Reader. All measurements were carried out as single point.

Consider `N#C[C@@H]1CC(F)(F)CN1C(=O)CNC(=O)c1ccncc1-c1cc(F)cc(F)c1` [Compound 47, (S)—N-(2-(2-cyano-4,4-difluoropyrrolidin-1-yl)-2-oxoethyl)-3-(3,5-difluorophenyl)isonicotinamide], for which the pIC50 in assay [1] was below 5.00; at mouse plasma FAPα (PRXS-AMC substrate, read-out: mouse plasma FAPα (PRXS-AMC) (exo IC50)), above 6.00; on mouse plasma FAPα (Z-Gly-Pro-AMC substrate, read-out: mouse plasma FAPα (Z-Gly-Pro-AMC) (exo IC50)), above 6.00; in assay [2] it was above 6.00.

By pIC50 is commonly meant the IC50 on a negative log10 scale, so that one unit is a factor of ten.
